According to patent publication US12077503B2, “Substituted cyclic amides and their use as herbicides” (FMC CORPORATION, priority 2015, dated 2024):

What was measured:
Assay type in all cases: in vivo
[1] = test system: velvetleaf (Abutilon theophrasti); experiment: Test G Pre-Emergence Protocol; conditions: Abutilon theophrasti, pre-emergence, 312 h, evaluated after 13 days; for pest or weed control at 15.625 g/ha: 15.625 g ai/ha; for pest or weed control at 15.625 g/ha / pest or weed control at 250 g/ha: read-out: Velvetleaf damage rating (100=total damage to plant; 0=no damage to plant); for pest or weed control at 62.5 g/ha: 62.5 g ai/ha, 100=total damage to plant, 0=no damage to plant, read-out: Velvetleaf damage rating; for pest or weed control at 250 g/ha: 250 g ai/ha
Summary of the method: (§1)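 Pre-emergence spray, 15.625/62.5/250 g/ha, vehicle acetone:water 50:50 + 0.5% Tween 20, applied 1 d after sowing. Glasshouse 24/16° C, 14 h light, 65% RH, watered twice daily. Visual damage rating at 13 d, 0–100 scale.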

[2] = test system: barnyardgrass (Echinochloa crus-galli); experiment: Test G Pre-Emergence Protocol; conditions: Echinochloa crus-galli, pre-emergence, 312 h, evaluated after 13 days; for pest or weed control at 15.625 g/ha: 15.625 g ai/ha; for pest or weed control at 15.625 g/ha / pest or weed control at 250 g/ha: read-out: Barnyardgrass damage rating (100=total damage to plant; 0=no damage to plant); for pest or weed control at 62.5 g/ha: 62.5 g ai/ha, 100=total damage to plant, 0=no damage to plant, read-out: Barnyardgrass damage rating; for pest or weed control at 250 g/ha: 250 g ai/ha
Summary of the method: as §1

[3] = test system: corn (Zea mays); experiment: Test G Pre-Emergence Protocol; conditions: Zea mays, pre-emergence, 312 h, evaluated after 13 days; for plant injury at 15.625 g/ha: 15.625 g ai/ha; for plant injury at 15.625 g/ha / plant injury at 250 g/ha: read-out: Corn damage rating (100=total damage to plant; 0=no damage to plant); for plant injury at 62.5 g/ha: 62.5 g ai/ha, 100=total damage to plant, 0=no damage to plant, read-out: Corn damage rating; for plant injury at 250 g/ha: 250 g ai/ha
Summary of the method: as §1

[4] = test system: redroot pigweed (Amaranthus retroflexus); experiment: Test G Pre-Emergence Protocol; conditions: Amaranthus retroflexus, pre-emergence, 312 h, evaluated after 13 days; for pest or weed control at 15.625 g/ha: 15.625 g ai/ha; for pest or weed control at 15.625 g/ha / pest or weed control at 250 g/ha: read-out: Pigweed, Redroot damage rating (100=total damage to plant; 0=no damage to plant); for pest or weed control at 62.5 g/ha: 62.5 g ai/ha, 100=total damage to plant, 0=no damage to plant, read-out: Pigweed, Redroot damage rating; for pest or weed control at 250 g/ha: 250 g ai/ha
Summary of the method: as §1

[5] = test system: ivy-leaved morning glory (Ipomoea hederacea); experiment: Test G Pre-Emergence Protocol; conditions: Ipomoea, pre-emergence, 312 h, evaluated after 13 days; for pest or weed control at 15.625 g/ha: 15.625 g ai/ha; for pest or weed control at 15.625 g/ha / pest or weed control at 250 g/ha: read-out: Morningglory, Ivy-leaved damage rating (100=total damage to plant; 0=no damage to plant); for pest or weed control at 62.5 g/ha: 62.5 g ai/ha, 100=total damage to plant, 0=no damage to plant, read-out: Morningglory, Ivy-leaved damage rating; for pest or weed control at 250 g/ha: 250 g ai/ha
Summary of the method: as §1

[6] = test system: giant foxtail (Setaria faberi); experiment: Test G Pre-Emergence Protocol; conditions: Setaria faberi, pre-emergence, 312 h, evaluated after 13 days; for pest or weed control at 15.625 g/ha: 15.625 g ai/ha; for pest or weed control at 15.625 g/ha / pest or weed control at 250 g/ha: read-out: Foxtail, Giant damage rating (100=total damage to plant; 0=no damage to plant); for pest or weed control at 62.5 g/ha: 62.5 g ai/ha, 100=total damage to plant, 0=no damage to plant, read-out: Foxtail, Giant damage rating; for pest or weed control at 250 g/ha: 250 g ai/ha
Summary of the method: as §1

[7] = test system: velvetleaf (Abutilon theophrasti); experiment: Test G Post-Emergence Protocol; conditions: Abutilon theophrasti, post-emergence, 312 h, read-out: Velvetleaf damage rating; for pest or weed control at 15.625 g/ha: 15.625 g ai/ha, evaluated after 13 days (100=total damage to plant; 0=no damage to plant); for pest or weed control at 62.5 g/ha: 62.5 g ai/ha; for pest or weed control at 62.5 g/ha / pest or weed control at 250 g/ha: evaluated after 13 days, 100=total damage to plant, 0=no damage to plant; for pest or weed control at 250 g/ha: 250 g ai/ha
Summary of the method: (§2)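 Post-emergence herbicidal damage, scored visually 0–100 at 13 days. Application at 15.625, 62.5 or 250 g/ha onto 8-day-old plants grown under glasshouse control.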

[8] = test system: barnyardgrass (Echinochloa crus-galli); experiment: Test G Post-Emergence Protocol; conditions: Echinochloa crus-galli, post-emergence, 312 h, read-out: Barnyardgrass damage rating; for pest or weed control at 15.625 g/ha: 15.625 g ai/ha, evaluated after 13 days (100=total damage to plant; 0=no damage to plant); for pest or weed control at 62.5 g/ha: 62.5 g ai/ha; for pest or weed control at 62.5 g/ha / pest or weed control at 250 g/ha: evaluated after 13 days, 100=total damage to plant, 0=no damage to plant; for pest or weed control at 250 g/ha: 250 g ai/ha
Summary of the method: as §2

[9] = test system: corn (Zea mays); experiment: Test G Post-Emergence Protocol; conditions: Zea mays, post-emergence, 312 h, read-out: Corn damage rating; for plant injury at 15.625 g/ha: 15.625 g ai/ha, evaluated after 13 days (100=total damage to plant; 0=no damage to plant); for plant injury at 62.5 g/ha: 62.5 g ai/ha; for plant injury at 62.5 g/ha / plant injury at 250 g/ha: evaluated after 13 days, 100=total damage to plant, 0=no damage to plant; for plant injury at 250 g/ha: 250 g ai/ha
Summary of the method: as §2

[10] = test system: redroot pigweed (Amaranthus retroflexus); experiment: Test G Post-Emergence Protocol; conditions: Amaranthus retroflexus, post-emergence, 312 h, read-out: Pigweed, Redroot damage rating; for pest or weed control at 15.625 g/ha: 15.625 g ai/ha, evaluated after 13 days (100=total damage to plant; 0=no damage to plant); for pest or weed control at 62.5 g/ha: 62.5 g ai/ha; for pest or weed control at 62.5 g/ha / pest or weed control at 250 g/ha: evaluated after 13 days, 100=total damage to plant, 0=no damage to plant; for pest or weed control at 250 g/ha: 250 g ai/ha
Summary of the method: as §2

[11] = test system: ivy-leaved morning glory (Ipomoea hederacea); experiment: Test G Post-Emergence Protocol; conditions: Ipomoea, post-emergence, 312 h, read-out: Morningglory, Ivy-leaved damage rating; for pest or weed control at 15.625 g/ha: 15.625 g ai/ha, evaluated after 13 days (100=total damage to plant; 0=no damage to plant); for pest or weed control at 62.5 g/ha: 62.5 g ai/ha; for pest or weed control at 62.5 g/ha / pest or weed control at 250 g/ha: evaluated after 13 days, 100=total damage to plant, 0=no damage to plant; for pest or weed control at 250 g/ha: 250 g ai/ha
Summary of the method: as §2

[12] = test system: giant foxtail (Setaria faberi); experiment: Test G Post-Emergence Protocol; conditions: Setaria faberi, post-emergence, 312 h, read-out: Foxtail, Giant damage rating; for pest or weed control at 15.625 g/ha: 15.625 g ai/ha, evaluated after 13 days (100=total damage to plant; 0=no damage to plant); for pest or weed control at 62.5 g/ha: 62.5 g ai/ha; for pest or weed control at 62.5 g/ha / pest or weed control at 250 g/ha: evaluated after 13 days, 100=total damage to plant, 0=no damage to plant; for pest or weed control at 250 g/ha: 250 g ai/ha
Summary of the method: as §2

Row | SMILES | pest or weed control at 15.625 g/ha [1] [%] | pest or weed control at 62.5 g/ha [1] [%] | pest or weed control at 250 g/ha [1] [%] | pest or weed control at 15.625 g/ha [2] [%] | pest or weed control at 62.5 g/ha [2] [%] | pest or weed control at 250 g/ha [2] [%] | plant injury at 15.625 g/ha [3] [%] | plant injury at 62.5 g/ha [3] [%] | plant injury at 250 g/ha [3] [%] | pest or weed control at 15.625 g/ha [4] [%] | pest or weed control at 62.5 g/ha [4] [%] | pest or weed control at 250 g/ha [4] [%] | pest or weed control at 15.625 g/ha [5] [%] | pest or weed control at 62.5 g/ha [5] [%] | pest or weed control at 250 g/ha [5] [%] | pest or weed control at 15.625 g/ha [6] [%] | pest or weed control at 62.5 g/ha [6] [%] | pest or weed control at 250 g/ha [6] [%] | pest or weed control at 15.625 g/ha [7] [%] | pest or weed control at 62.5 g/ha [7] [%] | also measured
1 | COc1cc(OC(F)(F)F)cc(C2CN(C)C(=O)C2C(=O)Nc2cccc(F)c2F)c1 (stereo not drawn) [Compound 1697] | 0 | 0 | 20 | 40 | 70 | 80 | 0 | 40 | 50 | 0 | 0 | 20 | 0 | 0 | 0 | 70 | 80 | 80 | 0 | 30 | pest or weed control at 250 g/ha [7]: 30%; pest or weed control at 15.625 g/ha [8]: 60%; pest or weed control at 62.5 g/ha [8]: 70%; pest or weed control at 250 g/ha [8]: 90%; plant injury at 15.625 g/ha [9]: 10%; plant injury at 62.5 g/ha [9]: 80%; plant injury at 250 g/ha [9]: 80%; pest or weed control at 15.625 g/ha [10]: 20%; pest or weed control at 62.5 g/ha [10]: 60%; pest or weed control at 250 g/ha [10]: 70%; pest or weed control at 15.625 g/ha [11]: 30%; pest or weed control at 62.5 g/ha [11]: 60%; pest or weed control at 250 g/ha [11]: 60%; pest or weed control at 15.625 g/ha [12]: 80%; pest or weed control at 62.5 g/ha [12]: 80%; pest or weed control at 250 g/ha [12]: 80%
2 | COc1cc(F)cc(C2CN(C)C(=O)C2C(=O)Nc2cccc(F)c2F)c1 (stereo not drawn) [Compound 1699] | 0 | 0 | 0 | 60 | 80 | 90 | 0 | 30 | 70 | 0 | 0 | 0 | 0 | 10 | 70 | 80 | 90 | 90 | 0 | 0 | pest or weed control at 250 g/ha [7]: 30%; pest or weed control at 15.625 g/ha [8]: 60%; pest or weed control at 62.5 g/ha [8]: 80%; pest or weed control at 250 g/ha [8]: 90%; plant injury at 15.625 g/ha [9]: 0%; plant injury at 62.5 g/ha [9]: 30%; plant injury at 250 g/ha [9]: 70%; pest or weed control at 15.625 g/ha [10]: 0%; pest or weed control at 62.5 g/ha [10]: 0%; pest or weed control at 250 g/ha [10]: 30%; pest or weed control at 15.625 g/ha [11]: 10%; pest or weed control at 62.5 g/ha [11]: 30%; pest or weed control at 250 g/ha [11]: 70%; pest or weed control at 15.625 g/ha [12]: 80%; pest or weed control at 62.5 g/ha [12]: 80%; pest or weed control at 250 g/ha [12]: 80%
3 | COc1cc(C2CN(C)C(=O)C2C(=O)Nc2cccc(F)c2F)cc(C(F)(F)F)c1F (stereo not drawn) [Compound 1701] | 0 | 0 | 0 | 0 | 30 | 70 | 0 | 0 | 30 | 0 | 0 | 10 | 0 | 20 | 20 | 40 | 80 | 90 | 0 | 0 | pest or weed control at 250 g/ha [7]: 0%; pest or weed control at 15.625 g/ha [8]: 10%; pest or weed control at 62.5 g/ha [8]: 60%; pest or weed control at 250 g/ha [8]: 70%; plant injury at 15.625 g/ha [9]: 10%; plant injury at 62.5 g/ha [9]: 30%; plant injury at 250 g/ha [9]: 50%; pest or weed control at 15.625 g/ha [10]: 0%; pest or weed control at 62.5 g/ha [10]: 0%; pest or weed control at 250 g/ha [10]: 30%; pest or weed control at 15.625 g/ha [11]: 0%; pest or weed control at 62.5 g/ha [11]: 0%; pest or weed control at 250 g/ha [11]: 30%; pest or weed control at 15.625 g/ha [12]: 40%; pest or weed control at 62.5 g/ha [12]: 60%; pest or weed control at 250 g/ha [12]: 60%
